Results on 4 molecules are retold here after DBAASP.

Holding throughout (experiment): ≥ marks a high value that may be exact or a test limit, other limits are often not marked, values filed in µg/mL are converted to µM
Test [1] deals with Staphylococcus aureus Newman.
For test [2], the system named is Cronobacter muytjensii ATCC 51329.
Test [3] has as its system Cronobacter sakazakii ATCC BAA-894.
Test [4] has as its system Staphylococcus aureus SA113.
The test system of test [5] is Pseudomonas fluorescens NCIMB 9046.
In test [6] the test system is Staphylococcus aureus RN4220.
In test [7] the test system is Salmonella enterica subsp. enterica serovar Typhimurium LT2.
For test [8], the system named is Cronobacter sakazakii DPC 6440.
For test [9], the system named is Escherichia coli NCIMB 11843.
The test system of test [10] is Staphylococcus aureus RF122.
The subject of test [11] is Cronobacter sakazakii DSM 4485.
The test system of test [12] is Staphylococcus aureus NCTC 8325-4.
Test [13] deals with Klebsiella pneumoniae NCIMB 13218.
The subject of test [14] is Pseudomonas aeruginosa ATCC 27853.
The test system of test [15] is Acinetobacter baumannii ATCC 19606.
For test [16], the system named is Escherichia coli.
Test [17] has as its system Klebsiella pneumoniae ATCC 700603.
For test [18], the system named is Escherichia coli BW25113.
Test [19] concerns Staphylococcus aureus ATCC 25923.
Test [20] has as its system Escherichia coli BW25113 ΔsbmA.
Test [21] concerns Escherichia coli D31.
The test system of test [22] is Staphylococcus epidermidis ATCC 14990.
Test [23] relates to Staphylococcus aureus ATCC 27660.
In test [24] the test system is Salmonella enterica subsp. enterica serovar Typhimurium ATCC 700931.
In test [25] the test system is Pseudomonas aeruginosa ATCC 10145.
The test system of test [26] is Escherichia coli KCTC 2223.
Test [27] deals with Staphylococcus aureus ATCC 15752.
Test [28] deals with Salmonella typhimurium KCTC 2370.
In test [29] the test system is Candida albicans ATCC 10231.
Test [30] has as its system Pseudomonas aeruginosa H636.

≈ marks a conversion by molar mass, not a printed value. Bounds are passed on as bounds.

Consider `CC[C@H](C)[C@H](N)C(=O)N[C@@H](C)C(=O)N[C@@H](C)C(=O)N[C@@H](CCC(N)=O)C(=O)NCC(=O)N[C@@H](CC(C)C)C(=O)N1CCC[C@H]1C(=O)N[C@@H](CCC(N)=O)C(=O)N[C@@H](CCC(=O)O)C(=O)O` [IAAQGLPQE], for which the MIC (as a rule, the least concentration at which growth counts as inhibited) in test [1] was at least 1250 µM; in [2], at least 2500 µM; in [3] it was at least 2500 µM; in test [4], at least 1250 µM; in [5], at least 1250 µM; in test [6], at least 1250 µM. The MIC in test [7] is at least 1250 µM; in [8] it was at least 312 µM; in test [9] it was at least 1250 µM; in test [10], at least 1250 µM; in test [11] it was at least 2500 µM; in test [12] it was at least 1250 µM. Besides, the MIC in [13] was at least 1250 µM.
For the molecule `CC[C@H](C)[C@H](NC(=O)[C@@H]1CCCN1C(=O)[C@H](CCCN=C(N)N)NC(=O)[C@H](CCCN=C(N)N)NC(=O)[C@H](Cc1c[nH]c2ccccc12)NC(=O)[C@@H](N)CCCN=C(N)N)C(=O)N[C@@H](CCCN=C(N)N)C(=O)N[C@@H](CCCN=C(N)N)C(=O)N[C@@H](CCCN=C(N)N)C(=O)N1CCC[C@H]1C(=O)N[C@H](C(=O)N[C@@H](CCCN=C(N)N)C(=O)N1CCC[C@H]1C(=O)N1CCC[C@H]1C(=O)N[C@@H](Cc1ccccc1)C(=O)N[C@@H](Cc1ccc(O)cc1)C(=O)N[C@@H](Cc1c[nH]c2ccccc12)C(=O)O)[C@@H](C)CC` [RWRRPIRRRPIRPPFYW], the MIC in test [14] is 32 µM (≈ 77.1 µg/mL); in test [15], 2 µM (≈ 4.82 µg/mL); in test [16], 1.41 µM (≈ 3.41 µg/mL); in test [17], 64 µM (≈ 154 µg/mL); in test [18], 4 µM (≈ 9.64 µg/mL); in test [19], 32 µM (≈ 77.1 µg/mL). Moreover, the MIC in [20] was 4 µM (≈ 9.64 µg/mL).
Regarding `C[C@H](N)C(=O)N[C@@H](Cc1ccccc1)C(=O)N[C@@H](Cc1c[nH]c2ccccc12)C(=O)N[C@@H](CCCCN)C(=O)N[C@@H](CCCCN)C(=O)N[C@@H](Cc1ccccc1)C(=O)N[C@@H](Cc1ccccc1)C(=O)N[C@@H](CCCCN)C(=O)N[C@@H](CCCCN)C(=O)N[C@@H](Cc1ccccc1)C(=O)N[C@@H](Cc1ccccc1)C(=O)N[C@@H](CCCCN)C(=O)N[C@@H](CO)C(=O)N[C@@H](C)C(=O)N[C@@H](CCCCN)C(=O)N[C@@H](CCCCN)C(=O)N[C@@H](Cc1ccccc1)C(=O)NCC(=O)O` [AFWKKFFKKFFKSAKKFG], the MIC in [21] worked out at 1.88 µM (≈ 4.27 µg/mL); in [22], 0.94 µM (≈ 2.13 µg/mL); in test [23] it was 1.88 µM (≈ 4.27 µg/mL); in test [24], 1.88 µM (≈ 4.27 µg/mL); in test [25], 1.88 µM (≈ 4.27 µg/mL).
Take `CC(C)C[C@H](NC(=O)[C@H](CCCCN)NC(=O)[C@H](CCCN=C(N)N)NC(=O)[C@H](CCC(N)=O)NC(=O)[C@@H](N)CO)C(=O)N[C@@H](C)C(=O)N[C@@H](C)C(=O)N[C@@H](CCCCN)C(=O)N[C@@H](CC(C)C)C(=O)N[C@H](C(=O)N[C@@H](CO)C(=O)N[C@@H](CCCCN)C(=O)O)[C@@H](C)O` [SQRKLAAKLTSK]: the MIC in [26] was at least 32 µM; in [27] it was at least 32 µM; in test [28], at least 32 µM; in test [29], above 32 µM; in [30], at least 32 µM.
